Values quoted from earlier work, collected in patent publication US20060153925A1, “Novel solid pharmaceutical composition comprising amisulpride” (Sanofi-Aventis, priority 2003, published 2006).

Settings: administered orally; attributed to partial gastrointestinal absorption

- bioavailability: about 48%
SMILES: CCN1CCCC1CNC(=O)c1cc(S(=O)(=O)CC)c(N)cc1OC (racemic) [amisulpride, 4-amino-N-[(1-ethyl-2-pyrrolidin-yl)methyl]-5-(ethylsulfonyl)-2-methoxybenzamide]
